Results published in PubChem BioAssay (NCI).
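Growth conditions: 96-well plates. Treatment: test compound, 48 hours, 5 concentrations. Analysis: linear interpolation between bracketing concentrations; unreached endpoints set to highest concentration. GI50 = concentration required for 50% inhibition of growth. TGI is the concentration that stops growth completely.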

What was measured:
Experiment in all cases: inhibition of tumour cell growth, NCI panel, 48 h
DU-145 prostate = test system: DU-145 prostate
HL-60(TB) leukemia = test system: HL-60(TB) leukemia
HOP-62 NSCLC = test system: HOP-62 NSCLC
K-562 leukemia = test system: K-562 leukemia
KM12 colon = test system: KM12 colon
NCI-H522 lung = test system: NCI-H522 lung
RXF 393 renal = test system: RXF 393 renal
SF-268 CNS = test system: SF-268 CNS
SK-MEL-5 melanoma = test system: SK-MEL-5 melanoma
M14 melanoma = test system: M14 melanoma

Compound | GI50 (DU-145 prostate) [µM] | TGI (DU-145 prostate) [µM] | GI50 (HL-60(TB) leukemia) [µM] | TGI (HL-60(TB) leukemia) [µM] | GI50 (HOP-62 NSCLC) [µM] | TGI (HOP-62 NSCLC) [µM] | GI50 (K-562 leukemia) [µM] | TGI (K-562 leukemia) [µM] | GI50 (KM12 colon) [µM] | TGI (KM12 colon) [µM] | GI50 (NCI-H522 lung) [µM] | TGI (NCI-H522 lung) [µM] | GI50 (RXF 393 renal) [µM] | TGI (RXF 393 renal) [µM] | GI50 (SF-268 CNS) [µM] | TGI (SF-268 CNS) [µM] | GI50 (SK-MEL-5 melanoma) [µM] | TGI (SK-MEL-5 melanoma) [µM] | GI50 (M14 melanoma) [µM] | TGI (M14 melanoma) [µM]
O=C1c2ccccc2C(=O)c2c1ccc1c(=O)n(-c3ccccc3C(F)(F)F)nnc21 | 3.19 | > 100 | 1.76 | 5.48 | 1.28 | 19.1 | 1.76 | > 100 | 1.88 | 5.5 | 1.81 | 5.71 | 2.15 | 4.87 | 2.74 | > 100 | 1.67 | 3.05 | – | –
COc1ccccc1/C=C/C1=C(C)CCC(c2ccccc2OC)C1C (centres undefined) | 0.22 | 0.868 | 0.262 | 0.603 | 0.153 | 19.3 | – | – | 0.0879 | – | 0.113 | – | 0.11 | – | 0.201 | > 73 | 0.122 | 0.379 | 0.16 | 0.655
COc1ccc(-c2[nH]nc(N)c2-c2cc(OC)c3c(c2)OCO3)cc1 | 5.6 | > 100 | 2.89 | 10.3 | 5.65 | > 100 | 1.87 | > 100 | 2.35 | 31.6 | – | – | 3.63 | 16.1 | 4.74 | > 100 | 2.85 | 8.97 | 2.55 | 7.24
C/C(=N\n1c(O)c(C#N)cc(C#N)c1=O)c1ccncc1 | > 100 | > 100 | – | – | > 100 | > 100 | > 100 | > 100 | > 100 | > 100 | > 100 | > 100 | – | – | > 100 | > 100 | > 100 | > 100 | > 100 | > 100
c1ccc(-c2n(Cc3ccc4ccccc4c3)cc[n+]2Cc2ccc3ccccc3c2)cc1 | 1.38 | 2.73 | – | – | – | – | – | – | – | – | – | – | 1.12 | 2.44 | – | – | 0.481 | 1.69 | – | –
O=C(O)c1c(Cl)c(Cl)c(Cl)c(Cl)c1C(=O)Nc1ccc2cn[nH]c2c1 | – | > 100 | – | – | – | > 100 | – | > 100 | – | > 100 | – | > 100 | – | > 100 | – | > 100 | – | > 100 | – | > 100
COc1cc(/C=C/C(=O)/C=C/c2cc3ccc(Cl)cc3n(Cc3ccccc3)c2=O)ccc1O | 1.87 | 5.47 | – | – | 2.75 | 7.08 | 1.89 | > 100 | 1.7 | 3.59 | 1.67 | 3.5 | 1.8 | 3.34 | 2.16 | 7.47 | 1.69 | 3.17 | 1.83 | 4.67
O=C(/C=C/C(Cl)(Cl)Cl)Nc1ccc(Cl)cc1 | – | 30.6 | – | 2.03 | – | 9.95 | – | – | – | 6.07 | – | 1.43 | – | 6.62 | – | 9.82 | – | 23.5 | – | 11.7
O=S(=O)(c1ccccc1)N1CN2CN(C1)CN(S(=O)(=O)c1ccccc1)C2 | – | > 100 | – | > 100 | – | > 100 | – | > 100 | – | > 100 | – | – | – | > 100 | – | – | – | > 100 | – | > 100
Cc1ccc(-c2nc(N3CCNCC3)c3oc(-c4ccccc4)nc3n2)cc1 | 1.74 | 3.19 | 1.43 | 3.09 | 1.96 | 4.48 | 1.61 | 3.55 | 1.85 | 3.51 | 1.64 | 3.43 | 1.7 | 3.19 | 2.07 | 5.07 | – | – | 1.78 | 3.31
N#Cc1ccccc1C#C/C=C\C#CC#C/C=C\C#Cc1ccccc1C#N | 29.3 | > 100 | 4.12 | 22.5 | 16.5 | 43.5 | – | – | 16.9 | 38.4 | 3.15 | 14.9 | 15 | 68.2 | 12 | > 100 | 10.4 | 27.9 | 11.3 | 35.5
O=Cc1c(-c2ccccc2)[nH]c2ccccc2c1=O | – | > 100 | – | – | – | > 100 | – | – | – | > 100 | – | > 100 | – | – | – | > 100 | – | 53.9 | – | > 100
CC[C@]1(O)CC2CN(CCc3c([nH]c4ccccc34)[C@@](C(=O)OC)(c3cc4c(cc3OC)N(C=O)[C@H]3[C@@](O)(C(=O)OC)[C@H](OC(C)=O)[C@]5(CC)C=CCN6CC[C@]43[C@@H]65)C2)C1 (some centres undefined) | < 0.005 | – | – | – | 0.0054 | > 44.2 | < 0.005 | > 50 | < 0.005 | > 50 | < 0.005 | < 0.005 | < 0.005 | > 50 | < 0.005 | > 50 | < 0.005 | 0.059 | 0.00632 | 0.679
COc1ccc2nc(-c3ccccc3)cc(Nc3cccc(C(C)=O)c3)c2c1 | 13.2 | 32.3 | – | – | 2.08 | 4.88 | 7.73 | > 100 | – | – | 31.6 | > 100 | – | – | 2.22 | 8.61 | 8.89 | 24.3 | 5.11 | 20.2
COc1cc(/C=C/c2ccc(Br)cc2)cc(OC)c1OC | – | – | – | 19 | – | 49.8 | – | > 37.8 | – | 38 | – | 46.1 | – | 54.6 | – | 31.2 | – | 20.4 | – | 87.6
COc1ccc(-c2ccccc2)c2[nH]c3c(c12)CCNC3=O | – | – | – | > 100 | – | > 100 | – | > 100 | – | > 100 | – | > 100 | – | > 100 | – | > 100 | – | > 100 | – | > 100
